This passage reports IC50 results from patent US11958861B2, “Spirocyclic lactams as JAK2 V617F inhibitors” (Incyte Corporation, priority 2021, dated 2024).

Structures are written as SMILES. pIC50: −log10 of the molar value. Counter-ions that a name gives are not always drawn.

For experiment [1], the target named is T1, pseudo-kinase domain (JH2, amino-acids 536-812) of human Wild Type JAK2 (Homo sapiens, UniProt O60674, F794H/W659A/W777A).
T1 construct: pseudo-kinase domain (JH2, amino-acids 536-812 with 3 surface mutations W659A, W777A, F794H); purchased BPS Bioscience 79463; host or cells: baculovirus expression system
Description: JAK2 LanthaScreen JH2-WT Binding Assay. The settings on record: 1 hour at 25° C. Put shortly:
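Binding was measured by TR-FRET between streptavidin-Tb (0.25 nM) on biotinylated JH2 (0.145 nM) and 50 nM fluorescent tracer, with compound dose series, 1 h at 25° C; IC50 fitted.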
A general note: TR-FRET usually uses a lanthanide donor and a delayed reading to cut background.

In experiment [2] the target is T2, catalytic domain (JH1, amino acids 808-1132) of human JAK2 (Homo sapiens, UniProt O60674).
T2 construct: catalytic domain (JH1, amino acids 808-1132) of human JAK2; His (N); purchased BPS Bioscience 40450; host or cells: baculovirus expression system
Nature of the experiment: JAK2 HTRF Enzyme Activity Assay. The experiment is classed as biochemical. The settings on record: ATP 30 μM, read-out: ENZ 30UMATP. In a few lines:
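His-tagged JAK2 JH1 from baculovirus, 0.015 nM, incubated with compound, ATP at 30 μM or 1 mM and 500 nM biotinylated peptide, pH 7.5, 60 min at 25° C. HTRF read-out via Eu-anti-phosphotyrosine and streptavidin-APC after EDTA stop; IC50 from four-parameter dose-response fit.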

The target of experiment [3] is T3, catalytic domain (JH1, amino acids 826-1132) of human JAK2 (Homo sapiens, UniProt O60674).
T3 construct: catalytic domain (JH1, amino acids 826-1132) of human JAK2; purchased Carna Biosciences 08-445-20N; host or cells: baculovirus expression system
Nature of the experiment: JAK2 LanthaScreen JH1 Binding Assay. The settings on record: 2 hours at 25° C. In a few lines: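 FLAG-tagged biotinylated JAK2 JH1 (1.5 nM) incubated with compounds, 50 nM fluorescent tracer and 0.5 nM streptavidin-Tb in Tris pH 7.5 buffer with MgCl2, BSA, DTT, 2 h at 25 °C.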

For experiment [4], the target named is T4, pseudo-kinase domain (JH2, amino-acids 536-812) of human V617F mutant JAK2 (Homo sapiens, UniProt O60674, F794H/V617F/W659A/W777A).
T4 construct: pseudo-kinase domain (JH2, amino-acids 536-812 with 3 surface mutations W659A, W777A, F794H); purchased BPS Bioscience 79498; host or cells: baculovirus expression system
Nature of the experiment: JAK2 LanthaScreen JH2-V617F Binding Assay. The note with it: 1 hour at 25° C. In a few lines: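 Competition of compounds with a fluorescent tracer (50 nM) for the biotinylated domain (0.26 nM), detected via streptavidin-Tb (0.25 nM) after 1 h at 25° C in pH 7.5 Tris buffer containing glycerol, BSA and Brij-35. ATP at 2 mM gave background. IC50 by four-parameter fit.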

T1 sequence (O60674 536-812 W659A/W777A/F794H): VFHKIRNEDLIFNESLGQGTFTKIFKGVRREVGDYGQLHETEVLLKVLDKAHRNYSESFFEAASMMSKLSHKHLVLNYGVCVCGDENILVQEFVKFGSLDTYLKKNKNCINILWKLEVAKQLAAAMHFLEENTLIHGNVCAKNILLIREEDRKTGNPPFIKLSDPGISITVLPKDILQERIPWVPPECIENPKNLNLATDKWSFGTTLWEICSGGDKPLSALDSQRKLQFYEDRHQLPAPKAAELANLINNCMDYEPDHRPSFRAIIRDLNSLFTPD
T4 sequence (O60674 536-812 V617F/W659A/W777A/F794H): as the sequence (O60674 536-812 W659A/W777A/F794H) above, with V82F counted along it
T3 sequence (O60674 826-1132): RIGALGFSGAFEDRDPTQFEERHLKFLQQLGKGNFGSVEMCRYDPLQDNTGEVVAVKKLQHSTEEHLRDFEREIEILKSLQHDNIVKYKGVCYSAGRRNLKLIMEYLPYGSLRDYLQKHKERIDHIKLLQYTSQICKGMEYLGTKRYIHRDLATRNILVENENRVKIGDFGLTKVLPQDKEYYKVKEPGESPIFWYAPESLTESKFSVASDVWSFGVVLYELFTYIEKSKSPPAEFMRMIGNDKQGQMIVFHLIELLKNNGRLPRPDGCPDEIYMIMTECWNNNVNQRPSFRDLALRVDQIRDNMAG
T2 sequence (O60674 808-1132): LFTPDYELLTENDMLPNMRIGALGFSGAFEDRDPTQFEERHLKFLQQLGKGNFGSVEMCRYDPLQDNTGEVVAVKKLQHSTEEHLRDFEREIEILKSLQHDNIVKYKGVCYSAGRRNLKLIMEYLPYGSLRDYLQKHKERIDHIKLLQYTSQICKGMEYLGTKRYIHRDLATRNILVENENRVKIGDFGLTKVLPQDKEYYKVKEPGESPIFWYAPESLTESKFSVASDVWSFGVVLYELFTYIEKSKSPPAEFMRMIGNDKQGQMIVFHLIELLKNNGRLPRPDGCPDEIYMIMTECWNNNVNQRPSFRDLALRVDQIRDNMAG

In the case of `CO[C@H]1CC[C@@](CC#N)(N2CCC3(CC2)C(=O)N(C)c2cnc4[nH]c(-c5cnn(C)c5)c(-c5ccc6c(cnn6C)c5)c4c23)CC1` (single isomer, unassigned) [Example 75a, 2-(4-Methoxy-1-(6-methyl-1-(1-methyl-1H-indazol-5-yl)-2-(1-methyl-1H-pyrazol-4-yl)-7-oxo-6,7-dihydro-3H-spiro[dipyrrolo[2,3-b:3′,2′-d]pyridine-8,4′-piperidin]-1′-yl)cyclohexyl)acetonitrile], the pIC50 in experiment [1] is not below 7.00; in experiment [2] it was 6.30 to 7.00; in experiment [3], 6.30 to 7.00; in experiment [4] it was not below 7.00.
With `[2H]C([2H])([2H])n1ncc2cc(-c3c(-c4cnn(C)c4)[nH]c4ncc5c(c34)C3(CCN([C@](C)(CC#N)COC)CC3)C(=O)N5C)ccc21` (single isomer, unassigned) [Example 80a], the pIC50 in experiment [1] was not below 7.00; in experiment [2], 5.60 to 5.90; in experiment [3], 5.60 to 5.90; in experiment [4] it was not below 7.00.
Take `[2H]C([2H])([2H])n1ncc2cc(-c3c(-c4cnn(C)c4)[nH]c4ncc5c(c34)C3(CCN([C@@](C)(CC#N)COC)CC3)C(=O)N5C)ccc21` (single isomer, unassigned) [Example 80b]: the pIC50 in experiment [1] was not below 7.00; in experiment [2] it was 5.90 to 6.30; in experiment [3], 5.90 to 6.30; in experiment [4], not below 7.00.
As to `[2H]C([2H])([2H])N1C(=O)C2(CCCN(S(=O)(=O)C3(C)CC3)CC2)c2c1cnc1[nH]c(-c3cnn(C(C)C)c3)c(-c3ccc4c(cnn4C)c3)c21` (single isomer, unassigned) [Example 103, 2′-(1-Isopropyl-1H-pyrazol-4-yl)-6′-(methyl-d3)-1′-(1-methyl-1H-indazol-5-yl)-1-((1-methylcyclopropyl)sulfonyl)-3′,6′-dihydro-7′H-spiro[azepane-4,8′-dipyrrolo[2,3-b:3′,2′-d]pyridin]-7′-one, trifluoroacetate salt], the pIC50 in experiment [1] was not below 7.00; in experiment [2] it was 5.90 to 6.30; in experiment [3], 6.30 to 7.00; in experiment [4] it was not below 7.00.
With `CN1C(=O)C2(CCOCC2)c2c1cnc1[nH]c(-c3ccc(CN4CCC(S(C)(=O)=O)CC4)cc3)c(-c3ccccc3)c21` [Example 1, 6-Methyl-2-(4-((4-(methylsulfonyl)piperidin-1-yl)methyl)phenyl)-1-phenyl-2′,3,3′,5′,6,6′-hexahydro-7H-spiro[dipyrrolo[2,3-b:3′,2′-d]pyridine-8,4′-pyran]-7-one], the pIC50 in experiment [1] was not below 7.00; in experiment [2], 5.60 to 5.90; in experiment [3] it was 5.60 to 5.90; in experiment [4] it was not below 7.00.
On to `CC(=O)N1CCC(N2CC3(C2)C(=O)N(C)c2cnc4[nH]c(-c5ccc(CN6CCC(S(C)(=O)=O)CC6)cc5)c(-c5ccccc5)c4c23)CC1` [Example 3], for which the pIC50 in experiment [1] was 6.30 to 7.00; in experiment [2], less than 5.60; in experiment [3], less than 5.60; in experiment [4], 6.30 to 7.00.
Consider `CN1C(=O)C2(CCN(CCC#N)CC2)c2c1cnc1[nH]c(-c3ccc(CN4CCC(S(C)(=O)=O)CC4)cc3)c(-c3ccccc3)c21` [Example 4, 3-(6-Methyl-2-((4(4-(methylsulfonyl)piperidin-1-yl)methyl)phenyl)-7-oxo-1-phenyl-6,7-dihydro-3H-spiro[dipyrrolo[2,3-b:3′,2′-d]pyridine-8,4′-piperidin]-1′-yl)propanenitrile trifluoroacetate salt], for which the pIC50 in experiment [1] was not below 7.00; in experiment [2], 5.90 to 6.30; in experiment [3], 5.90 to 6.30; in experiment [4], not below 7.00.
For `CN1C(=O)C2(CCN(CCC#N)CC2)c2c1cnc1[nH]c(-c3ccc(CN4CCC(S(C)(=O)=O)CC4)cc3)c(-c3ccc4c(cnn4C)c3)c21` [Example 5, 3-(6-Methyl-1-(1-methyl-1H-indazol-5-yl)-2-(4-((4-(methylsulfonyl)piperidin-1-yl)methyl)phenyl)-7-oxo-6,7-dihydro-3H-spiro[dipyrrolo[2,3-b:3′,2′-d]pyridine-8,4′-piperidin]-1′-yl)propanenitrile trifluoroacetate salt], the pIC50 in experiment [1] was not below 7.00; in experiment [2], 5.90 to 6.30; in experiment [3] it was 5.90 to 6.30; in experiment [4] it was not below 7.00.
Take `CN1C(=O)C2(CCN(c3cnn(C4(CC#N)CCOCC4)c3)CC2)c2c1cnc1[nH]c(-c3cnn(C)c3)c(-c3ccccc3)c21` [Example 6, 2-(4-(4-(6-Methyl-2-(1-methyl-1H-pyrazol-4-yl)-7-oxo-1-phenyl-6,7-dihydro-3H-spiro[dipyrrolo[2,3-b:3′,2′-d]pyridine-8,4′-piperidin]-1′-yl)-1H-pyrazol-1-yl)tetrahydro-2H-pyran-4-yl)acetonitrile trifluoroacetate salt]: the pIC50 in experiment [1] is not below 7.00; in experiment [2], less than 5.60; in experiment [3], less than 5.60; in experiment [4] it was not below 7.00.
With `[2H]C([2H])([2H])n1cc(-c2[nH]c3ncc4c(c3c2-c2ccc3c(cnn3C)c2)C2(CCN(CCC#N)CC2)C(=O)N4C)cn1` [Example 7, 3-(6-Methyl-1-(1-methyl-1H-indazol-5-yl)-2-(1-(methyl-d3)-1H-pyrazol-4-yl)-7-oxo-6,7-dihydro-3H-spiro[dipyrrolo[2,3-b:3′,2′-d]pyridine-8,4′-piperidin]-1′-yl)propanenitrile], the pIC50 in experiment [1] is not below 7.00; in experiment [2], 5.60 to 5.90; in experiment [3] it was 5.60 to 5.90; in experiment [4], not below 7.00.
With `CN1C(=O)C2(CCCC2)c2c1cnc1[nH]c(-c3cnn(Cc4ccncc4)c3)c(-c3ccc4c(cnn4C)c3)c21` [Example 8, 6′-Methyl-1′-(1-methyl-1H-indazol-5-yl)-2′-(1-(pyridin-4-ylmethyl)-1H-pyrazol-4-yl)-3′,6′-dihydro-7′H-spiro[cyclopentane-1,8′-dipyrrolo[2,3-b:3′,2′-d]pyridin]-7′-one trifluoroacetate salt], the pIC50 in experiment [1] is not below 7.00; in experiment [2], less than 5.60; in experiment [3], 5.60 to 5.90; in experiment [4], not below 7.00.
Turning to `CN1C(=O)C2(CCCC2)c2c1cnc1[nH]c(C3CC3)c(-c3ccc4c(cnn4C)c3)c21` [Example 9, 2′-Cyclopropyl-6′-methyl-1′-(1-methyl-1H-indazol-5-yl)-3′,6′-dihydro-7′H-spiro[cyclopentane-1,8′-dipyrrolo[2,3-b:3′,2′-d]pyridin]-7′-one, trifluoroacetate salt], the pIC50 in experiment [1] is 6.30 to 7.00; in experiment [2] it was less than 5.60; in experiment [3], less than 5.60; in experiment [4] it was 6.30 to 7.00.
In the case of `CN1C(=O)C2(CCC2)c2c1cnc1[nH]c(-c3ccc(CN4CCC(S(C)(=O)=O)CC4)cc3)c(-c3ccccc3)c21` [Example 10, 6′-Methyl-2′-(4-((4-(methylsulfonyl)piperidin-1-yl)methyl)phenyl)-1′-phenyl-3′,6′-dihydro-7′H-spiro[cyclobutane-1,8′-dipyrrolo[2,3-b:3′,2′-d]pyridin]-7′-one trifluoroacetate salt], the pIC50 in experiment [1] was not below 7.00; in experiment [2] it was less than 5.60; in experiment [3], less than 5.60; in experiment [4], not below 7.00.
Take `CN1C(=O)C2(CCCCC2)c2c1cnc1[nH]c(-c3ccc(CN4CCC(S(C)(=O)=O)CC4)cc3)c(-c3ccccc3)c21` [Example 11, 6′-Methyl-2′-((4(4-(methylsulfonyl)piperidin-1-yl)methyl)phenyl)-1′-phenyl-3′,6′-dihydro-7′H-spiro[cyclohexane-1,8′-dipyrrolo[2,3-b:3′,2′-d]pyridin]-7′-one trifluoroacetate salt]: the pIC50 in experiment [1] was 6.30 to 7.00; in experiment [2], less than 5.60; in experiment [3] it was less than 5.60; in experiment [4], 6.30 to 7.00.
As for `CC(=O)N1C2CCC1CC1(C2)C(=O)N(C)c2cnc3[nH]c(-c4ccc(CN5CCC(S(C)(=O)=O)CC5)cc4)c(-c4ccccc4)c3c21` (stereo not drawn) [Example 13, 8-Acetyl-6′-methyl-2′-((4(4-(methylsulfonyl)piperidin-1-yl)methyl)phenyl)-1′-phenyl-3′,6′-dihydro-7′H-8-azaspiro[bicyclo[3.2.1]octane-3,8′-dipyrrolo[2,3-b:3′,2′-d]pyridin]-7′-one trifluoroacetate salt], the pIC50 in experiment [1] is not below 7.00; in experiment [2] it was 5.60 to 5.90; in experiment [3] it was 5.60 to 5.90; in experiment [4], 6.30 to 7.00.
